Measured values: paper PMC12684313, “Controlled Dual Activation of Rhenium(I) Photosensitizers and Profluorophores/Prodrugs via a Dissociative Bioorthogonal Tetrazine–Isonitrile Reaction” (Angewandte Chemie (International Ed. in English), 2025)
Like-named read-outs stand apart in the source and are kept apart here.

What was measured:
[1] = MTT assay, (photo)cytotoxicity toward HeLa cells; type: cell-based; details: human, HeLa cells, read-out: cell viability
Procedure: (§1) HeLa and HEK-293 cells were seeded in a 96-well flat-bottomed microplate (≈ 10,000 cells per well) in growth medium (100 µL) and incubated at 37°C under a 5% CO2 atmosphere for […]
(§2) 48 h. The growth medium was removed, and then incubated with either fresh growth medium or complexes 1a – 3a, with concentrations ranging from 10–5 to 10−8 M, in growth medium/DMSO (99:1, v/v) at 37°C for 3 h. The growth medium was removed and replaced with either fresh growth medium or ICPrc-Bn (200 µM) in growth medium/DMSO (99:1, v/v) at 37°C for 4 h. Wells containing untreated cells were used as a blank control. Wells containing cells treated with ICPrc-Bn (200 µM) alone for 4 h were used as a complex-free control. For evaluation of photocytotoxicity, the treated cells were incubated in phenol red-free growth medium (100 µL). One of the microplates was irradiated at 365 nm (5 mW cm−2) with an LED cellular photocytotoxicity irradiator (PURI Materials, Shenzhen, China) for […], whereas the other one was kept in the dark for 10 min. The cells were then incubated in fresh growth medium (100 µL) in the dark for 24 h. A solution containing MTT in PBS (10 µL, 5 mg mL−1) and fresh growth medium (90 µL) was added to each well. The microplate was incubated at 37°C for 4 h. The growth medium was removed, and DMSO (200 µL) was added to each well.
(§3) After 20 min, the absorbance of the solutions at 570 nm was measured with a Multiskan SkyHigh Microplate Spectrophotometer (Thermo Scientific). The IC50 values of the complex were determined from the dose dependence of surviving cells after the treatment using the OriginPro 8.0 software package. For dual-release studies, the cells were incubated with complex 3a, with concentrations ranging from 10–5 to 10−8 M, in growth medium/DMSO (99:1, v/v) at 37°C for 3 h, and replaced with either fresh growth medium or ICPrc-Dox (10 or 50 µM) in growth medium/DMSO (99:1, v/v) at 37°C for 4 h. Wells containing cells treated with ICPrc-Dox (10 or 50 µM) alone for 4 h were used as a complex-free control. Wells containing cells treated with cisplatin (3 h) or Dox (4 h), with concentrations ranging from 10–5 to 10−8 M, in growth medium/DMSO (99:1, v/v) at 37°C were used as positive controls. Furthermore, to evaluate the maximum therapeutic effect of the dual release, concentrations of complex 3b and Dox were serially diluted in a 1:1 ratio to serve as a reference, assuming similar cellular uptake […]
(§4) of complex 3a with 3b and ICPrc-Dox with Dox. Briefly, HeLa cells were incubated with complex 3b, with concentrations ranging from 10–5 to 10−8 M, in growth medium/DMSO (99:1, v/v) at 37°C for 3 h, and replaced with either fresh growth medium or Dox, with concentrations ranging from 10–5 to 10−8 M, in growth medium/DMSO (99:1, v/v) at 37°C for 4 h.

[2] = MTT assay, (photo)cytotoxicity toward HEK-293 cells; type: cell-based; details: human, HEK-293 cells, read-out: cell viability
Procedure: as §1, §2
(§5) After 20 min, the absorbance of the solutions at 570 nm was measured with a Multiskan SkyHigh Microplate Spectrophotometer (Thermo Scientific). The IC50 values of the complex were determined from the dose dependence of surviving cells after the treatment using the OriginPro 8.0 software package. […]

[3] = Stability of ICPr/ICPrc derivatives in serum (HPLC); type: in vitro ADME; details: 25 µM in 25% FBS, 37 °C, dark
Procedure: was incubated with ICPr-coum (80 µM) in aerated McIlvaine buffer (pH 7.4 or 5.0)/CH3CN (4:1, v/v) at 37°C. The reactions at different time points were quenched by the addition of 900 µL of cold H2O/CH3CN (1:1, v/v) and then analyzed by RP-HPLC. The HPLC analysis was conducted following the elution conditions specified for the reaction kinetic studies. The release yields were plotted against time. The half-lives (t1/2) were defined as the time required for the concentration of the reactant to decrease by half of its initial quantity, obtained through an exponential fit of the curve. The release yields were defined as the quantity of the final product, umbelliferone, liberated in the reaction. Furthermore, to evaluate the effect of ether versus carbamate linkages within the ICPr/ICPrc moiety on release kinetics, the half-lives of ICPr-coum, ICPr-fluorescein, and ICPrc-Dox were determined by HPLC analyses. Equimolar mixtures of complex 3a (50 µM) and each ICPr/ICPrc derivative (50 µM) were incubated in aerated McIlvaine buffer (pH 7.4)/DMSO (4:1, v/v) at 37°C. The reactions at different time points were quenched by the addition of 900 µL of cold H2O/CH3CN (1:1, v/v) and then […]
Stability of ICPr/ICPrc Derivatives in Serum
ICPr-fluorescein or ICPrc-Dox (25 µM) was incubated in 25% FBS at 37 °C in the dark for 48 h. […]

HeLa cells = test: MTT assay, (photo)cytotoxicity toward HeLa cells; type: cell-based
Procedure: as §1, §2, §3, §4

HEK‐293 cells = test: MTT assay, (photo)cytotoxicity toward HEK-293 cells; type: cell-based
Procedure: as §1, §2, §5

[4] = 1O2 generation quantum yield from 1O2 emission at around 1270 nm; type: physicochemical; details: aerated CH3CN, 298 K; λex = 350 nm; reference phenalenone
Procedure: (§6) The ^1O2 generation efficiencies of the complexes were evaluated by monitoring the emission band of ^1O2 centered at around 1270 nm^[ [34], [35] ^] in aerated CH3CN. […] Considering the pH‐dependent emission properties of complexes 1b–3b, we believe that their ^1O2 photosensitization efficiencies would also be influenced by pH. Taking complex 3b as an example, its ^1O2 generation efficiency was evaluated in aerated McIlvaine buffer solutions at various pH levels by the 9,10‐anthracenediyl‐bis(methylene)dimalonic acid (ABDA) assay.^[ [36] ^] […] Thus, the TzMe complexes are anticipated to function as pH‐sensitive phosphorogenic bioorthogonal probes, enabling simultaneous detection and photodynamic therapy in lysosomal compartments (pH ≈ 4.5–5.0)^[ [37], [38] ^] and acidic TME.

[5] = 1O2 generation quantum yield by ABDA assay in McIlvaine buffer; type: physicochemical; details: 298 K
Procedure: as §6, with “TME. […]” for “TME.”
where the subscripts s and r refer to the sample and reference solutions, respectively, Φ is 1O2 quantum yield, m is the slope of a linear fit of the change of absorbance at 378 nm against the irradiation time, B is 1 – 10–AL, A is absorbance at the excitation wavelength, and L is path […]
To confirm the liberation of ICPr/ICPrc -caged compounds during the reaction, the concurrent release of compounds from their respective tetrazine and ICPr/ICPrc caging groups was studied by RP-HPLC analysis. Complex 3a (50 µM) and ICPr -coum (40 µM) were incubated in aerated McIlvaine buffer (pH 7.4)/DMSO (4:1, v/v) at 37°C for 18 h. The reaction mixture was subjected to HPLC analysis. The HPLC analysis was performed using an Agilent analytical column (ZORBAX Eclipse Plus C18 column: 4.6 × 150 mm, 5 µm) with a linear gradient of 0 − 100% solvent B over 12 min and a flow rate of 1 mL min −1. The emission was monitored at the emission peak maxima of the released products, umbelliferone (also known as 7 - hydroxycoumarin) (λex = 350 nm, λem = 460 nm) and complex 3b (λex = 350 nm, λem = 562 nm). […] The emission spectrum was recorded on a HORIBA FluoroMax-4 spectrofluorometer. […] The reaction was monitored by HPLC analyses after incubation for 4 and 24 h.

[6] = ICPrc‐Bn (200 µM) alone for 4 h, subsequently irradiated
[7] = ICPrc‐Dox (10 or 50 µM) alone, dark and irradiation
[8] = – ICPrc‐Bn, irradiation at 365 nm (5 mW cm−2) for 5 min, read-out: IC50,light

## [C-]#[N+]CCCOC(=O)NCc1ccccc1 [ICPrc‐Bn, 3‐isocyanopropyl benzylcarbamate, reference compound]
[1]; [6]
  viability at 4 h, 200 µM: > 98%
[2]; [6]
  viability at 4 h, 200 µM: > 98%

## [C-]#[N+]CCCOC(=O)NC1CC(OC2CC(O)(C(=O)CO)Cc3c(O)c4c(c(O)c32)C(=O)c2c(OC)cccc2C4=O)OC(C)C1O (centres unmarked) [ICPrc‐Dox, N-(3-isocyanopropyl-1-carbamoyl)doxorubicin, reference compound]
[1]; [7]
  viability at 4 h: > 98%
[2]; [7]
  viability at 4 h: > 98%
[3]
  time stable in serum: over 48 h

## N.N.[Cl][Pt][Cl] [Cisplatin, cisplatin, reference compound]
HeLa cells; – ICPrc‐Bn (complex 3 h, fresh medium 4 h; cisplatin 3 h), dark, read-out: IC50,dark
  IC50: > 50 µM
HeLa cells; [8]
  IC50: > 50 µM
HEK‐293 cells; – ICPrc‐Bn, dark, read-out: IC50,dark
  IC50: > 50 µM
HEK‐293 cells; [8]
  IC50: > 50 µM

## O=S(=O)([O-])C(F)(F)F.O=[C]=[Re-2]1(=[C]=O)(=[C]=O)([n+]2cccc(O)c2)[n+]2ccc(-c3ccccc3)c3ccc4c(-c5ccccc5)cc[n+]1c4c32 [complex 3b, [Re(N^N)(CO)3(py‐OH)](CF3SO3)]
HeLa cells; Table S10
  PI (IC50,dark/IC50,light): 6
HeLa cells; Table S10, 3b 3 h then fresh medium or Dox (1:1 ratio) 4 h, dark, read-out: IC50,dark
  IC50: 29 µM
HeLa cells; Table S10, 3b 3 h then fresh medium or Dox (1:1 ratio) 4 h, irradiation at 365 nm (5 mW cm−2) for 5 min, read-out: IC50,light
  IC50: 5.1 µM
[4]
  1O2 generation quantum yield (ΦΔ): 0.63
[5]; aerated McIlvaine buffer pH 3.0/CH3CN (4:1, v/v)
  1O2 generation quantum yield (ΦΔ): 0.24
[5]; aerated McIlvaine buffer pH 5.0/CH3CN (4:1, v/v)
  1O2 generation quantum yield (ΦΔ): 0.12
[5]; aerated McIlvaine buffer pH 7.4/CH3CN (4:1, v/v)
  1O2 generation quantum yield (ΦΔ): Negligible

## COc1cccc2c1C(=O)c1c(O)c3c(c(O)c1C2=O)C[C@@](O)(C(=O)CO)C[C@@H]3O[C@H]1C[C@H](N)[C@H](O)[C@H](C)O1 [Dox, doxorubicin, reference compound]
HeLa cells; Homo sapiens, Table 2, no ICPrc‐Dox (3a 3 h then fresh medium 4 h; Dox 4 h), dark, read-out: IC50,dark
  IC50: 5.8 ± 0.6 µM
HeLa cells; Homo sapiens, light or radiation study, 5 min, Table 2, no ICPrc‐Dox, irradiation at 365 nm (5 mW cm−2) for 5 min, read-out: IC50,light
  IC50: 5.3 ± 0.6 µM
HeLa cells; Table 2, no ICPrc‐Dox
  PI (IC50,dark/IC50,light): 1
HEK‐293 cells; Homo sapiens, HEK293, Table 2, no ICPrc‐Dox, dark, read-out: IC50,dark
  IC50: > 50 µM
HEK‐293 cells; Homo sapiens, HEK293, light or radiation study, 5 min, Table 2, no ICPrc‐Dox, irradiation at 365 nm (5 mW cm−2) for 5 min, read-out: IC50,light
  IC50: 43 ± 2 µM
HEK‐293 cells; Table 2, no ICPrc‐Dox
  PI (IC50,dark/IC50,light): > 1

## [C-]#[N+]CCCOc1ccc2c(-c3ccccc3C(=O)O)c3ccc(=O)cc-3oc2c1 [ICPr‐fluorescein]
[3]
  time stable in serum: at least 48 h
